Assay results from the supplement of paper PMC9663587.

compound: T1, CCOc1cc2ncc(C#N)c(Nc3ccc(OCc4ccccn4)c(Cl)c3)c2cc1NC(=O)/C=C/CN(C)C [Neratinib/HKI272]; test: GR value, 72 h; higher = faster growth (1 = untreated, <0 = killing); conditions: 0.0003162 µM;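 further: breast cancer and non-malignant breast epithelial lines, nine half-log doses, viable cells counted by Hoechst and LIVE/DEAD dye imaging versus time-zero plates and DMSO controls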

Cell Line | GR value [GR]
HTERT_HME1 | 1.07
MCF7 | 1.04
MCF10A | 1
MCF12A | 1.07
MDAMB175VII | 0.753

same assay, conditions: 0.001 µM

Cell Line | GR value [GR]
HTERT_HME1 | 1.09
MCF7 | 1.03
MCF10A | 1
MCF12A | 0.998
MDAMB175VII | 0.53

same assay, conditions: 0.003162 µM

Cell Line | GR value [GR]
HTERT_HME1 | 1.08
MCF7 | 0.998
MCF10A | 1
MCF12A | 1.01
MDAMB175VII | 0.138

same assay, conditions: 0.01 µM

Cell Line | GR value [GR]
HTERT_HME1 | 1.01
MCF7 | 0.951
MCF10A | 0.976
MCF12A | 1.04
MDAMB175VII | -0.551

same assay, conditions: 0.03162 µM

Cell Line | GR value [GR]
HTERT_HME1 | 0.89
MCF7 | 0.947
MCF10A | 0.723
MCF12A | 1.03
MDAMB175VII | -0.848

same assay, conditions: 0.1 µM

Cell Line | GR value [GR]
HTERT_HME1 | 0.57
MCF7 | 0.931
MCF10A | 0.496
MCF12A | 0.893
MDAMB175VII | -0.905

same assay, conditions: 0.3162 µM

Cell Line | GR value [GR]
HTERT_HME1 | 0.349
MCF7 | 0.774
MCF10A | 0.304
MCF12A | 0.546
MDAMB175VII | -0.932

same assay, conditions: 1 µM

Cell Line | GR value [GR]
HTERT_HME1 | 0.269
MCF7 | 0.657
MCF10A | 0.179
MCF12A | 0.336
MDAMB175VII | -0.949

same assay, conditions: 3.162 µM

Cell Line | GR value [GR]
HTERT_HME1 | 0.105
MCF7 | 0.0611
MCF10A | 0.099
MCF12A | 0.0907
MDAMB175VII | -0.983

compound: CN(C)C/C=C/C(=O)Nc1ccc(C(=O)Nc2cccc(Nc3ncc(Cl)c(-c4c[nH]c5ccccc45)n3)c2)cc1 [THZ1]; test: as above; conditions: 0.0001 µM

Cell Line | GR value [GR]
HTERT_HME1 | 1.1
MCF7 | 1.08
MCF10A | 0.995
MCF12A | 0.997
MDAMB175VII | 0.829

same assay, conditions: 0.0003162 µM

Cell Line | GR value [GR]
HTERT_HME1 | 0.944
MCF7 | 0.931
MCF10A | 1.01
MCF12A | 0.989
MDAMB175VII | 1.05

same assay, conditions: 0.001 µM

Cell Line | GR value [GR]
HTERT_HME1 | 0.928
MCF7 | 0.926
MCF10A | 0.985
MCF12A | 1
MDAMB175VII | 1.01

same assay, conditions: 0.003162 µM

Cell Line | GR value [GR]
HTERT_HME1 | 0.72
MCF7 | 0.941
MCF10A | 0.992
MCF12A | 0.958
MDAMB175VII | 0.843

same assay, conditions: 0.01 µM

Cell Line | GR value [GR]
HTERT_HME1 | -0.0367
MCF7 | 0.78
MCF10A | 0.896
MCF12A | 0.984
MDAMB175VII | 0.736

same assay, conditions: 0.03162 µM

Cell Line | GR value [GR]
HTERT_HME1 | -0.275
MCF7 | 0.366
MCF10A | 0.69
MCF12A | 0.851
MDAMB175VII | 0.515

same assay, conditions: 0.1 µM

Cell Line | GR value [GR]
HTERT_HME1 | -0.295
MCF7 | -0.103
MCF10A | 0.32
MCF12A | 0.569
MDAMB175VII | -0.0075

same assay, conditions: 0.3162 µM

Cell Line | GR value [GR]
HTERT_HME1 | -0.319
MCF7 | -0.305
MCF10A | -0.0551
MCF12A | 0.338
MDAMB175VII | -0.159

same assay, conditions: 1 µM

Cell Line | GR value [GR]
HTERT_HME1 | -0.497
MCF7 | -0.461
MCF10A | -0.563
MCF12A | -0.312
MDAMB175VII | -0.44

compound: C=CC(=O)Nc1ccc(C(=O)Nc2[nH]nc3c2CN(C(=O)N[C@H](CN(C)C)c2ccccc2)C3(C)C)cc1 [YKL-5-124]; test: increase in dead-cell fraction, 72 h; higher = more death; conditions: 0.001 µM;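 further: breast cancer cell lines in 384-well plates, stained with Hoechst plus LIVE/DEAD far red dye and imaged, cells above an LDR intensity threshold counted dead, Hoechst-negative corpses included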

Cell Line | increase in dead-cell fraction
HTERT_HME1 | 0.0989
MCF7 | 0.0137
MCF10A | 0.0412
MCF12A | 0.0376
MDAMB175VII | 0.0167

same assay, conditions: 0.003162 µM

Cell Line | increase in dead-cell fraction
HTERT_HME1 | 0.131
MCF7 | 0.0144
MCF10A | 0.118
MCF12A | 0.0894
MDAMB175VII | 0.0032

same assay, conditions: 0.01 µM

Cell Line | increase in dead-cell fraction
HTERT_HME1 | 0.165
MCF7 | 0.0219
MCF10A | 0.138
MCF12A | 0.136
MDAMB175VII | 0.0173

same assay, conditions: 0.03162 µM

Cell Line | increase in dead-cell fraction
HTERT_HME1 | 0.151
MCF7 | 0.0284
MCF10A | 0.146
MCF12A | 0.155
MDAMB175VII | 0.0139

same assay, conditions: 0.1 µM

Cell Line | increase in dead-cell fraction
HTERT_HME1 | 0.181
MCF7 | 0.0263
MCF10A | 0.116
MCF12A | 0.184
MDAMB175VII | 0.0095

same assay, conditions: 0.3162 µM

Cell Line | increase in dead-cell fraction
HTERT_HME1 | 0.224
MCF7 | 0.0411
MCF10A | 0.149
MCF12A | 0.177
MDAMB175VII | 0.0149

same assay, conditions: 1 µM

Cell Line | increase in dead-cell fraction
HTERT_HME1 | 0.144
MCF7 | 0.0356
MCF10A | 0.159
MCF12A | 0.165
MDAMB175VII | 0.0069

same assay, conditions: 3.162 µM

Cell Line | increase in dead-cell fraction
HTERT_HME1 | 0.293
MCF7 | 0.039
MCF10A | 0.118
MCF12A | 0.164
MDAMB175VII | 0.0133

same assay, conditions: 10 µM

Cell Line | increase in dead-cell fraction
HTERT_HME1 | 0.304
MCF7 | 0.203
MCF10A | 0.167
MCF12A | 0.252
MDAMB175VII | 0.285

compound: CC(=O)c1c(C)c2cnc(Nc3ccc(N4CCNCC4)cn3)nc2n(C2CCCC2)c1=O; test: as above; conditions: 0.0003162 µM

Cell Line | increase in dead-cell fraction
HTERT_HME1 | -0.0026
MCF7 | -0.0006
MCF10A | 0.0006
MCF12A | -0.0052
MDAMB175VII | 0.0035

same assay, conditions: 0.001 µM

Cell Line | increase in dead-cell fraction
HTERT_HME1 | 0.0007
MCF7 | -0.0004
MCF10A | 0.0003
MCF12A | -0.0036
MDAMB175VII | 0.0034

same assay, conditions: 0.003162 µM

Cell Line | increase in dead-cell fraction
HTERT_HME1 | -0.0013
MCF7 | 0.002
MCF10A | -0.0024
MCF12A | -0.0043
MDAMB175VII | -0.0018

same assay, conditions: 0.01 µM

Cell Line | increase in dead-cell fraction
HTERT_HME1 | -0.0019
MCF7 | 0.0051
MCF10A | -0.0041
MCF12A | -0.0067
MDAMB175VII | 0.0077

same assay, conditions: 0.03162 µM

Cell Line | increase in dead-cell fraction
HTERT_HME1 | 0.0014
MCF7 | 0.0099
MCF10A | -0.0059
MCF12A | -0.005
MDAMB175VII | 0.0116

same assay, conditions: 0.1 µM

Cell Line | increase in dead-cell fraction
HTERT_HME1 | 0.0147
MCF7 | 0.0195
MCF10A | -0.0084
MCF12A | -0.003
MDAMB175VII | 0.0214

same assay, conditions: 0.3162 µM

Cell Line | increase in dead-cell fraction
HTERT_HME1 | 0.0168
MCF7 | 0.022
MCF10A | -0.0088
MCF12A | 0.0031
MDAMB175VII | 0.0115

same assay, conditions: 1 µM

Cell Line | increase in dead-cell fraction
HTERT_HME1 | 0.0267
MCF7 | 0.0362
MCF10A | -0.0079
MCF12A | 0.006
MDAMB175VII | 0.0097

same assay, conditions: 3.162 µM

Cell Line | increase in dead-cell fraction
HTERT_HME1 | 0.0446
MCF7 | 0.0308
MCF10A | -0.005
MCF12A | 0.0205
MDAMB175VII | 0.0212

compound: CCN1CCN(Cc2ccc(Nc3ncc(F)c(-c4cc(F)c5nc(C)n(C(C)C)c5c4)n3)nc2)CC1; test: as above; conditions: 0.001 µM

Cell Line | increase in dead-cell fraction
HTERT_HME1 | 0.0004
MCF7 | 0.0009
MCF10A | -0.0006
MCF12A | -0.003
MDAMB175VII | -0.0013

same assay, conditions: 0.003162 µM

Cell Line | increase in dead-cell fraction
HTERT_HME1 | -0.0056
MCF7 | 0.0022
MCF10A | -0.0032
MCF12A | 0.0003
MDAMB175VII | -0.0015

same assay, conditions: 0.01 µM

Cell Line | increase in dead-cell fraction
HTERT_HME1 | -0.0023
MCF7 | 0.0141
MCF10A | -0.0061
MCF12A | -0.0021
MDAMB175VII | 0.0094

same assay, conditions: 0.03162 µM

Cell Line | increase in dead-cell fraction
HTERT_HME1 | 0.002
MCF7 | 0.0241
MCF10A | -0.0084
MCF12A | 0.0015
MDAMB175VII | 0.0188

same assay, conditions: 0.1 µM

Cell Line | increase in dead-cell fraction
HTERT_HME1 | 0.0067
MCF7 | 0.0305
MCF10A | -0.0079
MCF12A | 0.006
MDAMB175VII | 0.0085

same assay, conditions: 0.3162 µM

Cell Line | increase in dead-cell fraction
HTERT_HME1 | 0.0112
MCF7 | 0.0363
MCF10A | -0.0081
MCF12A | 0.0113
MDAMB175VII | 0.013

same assay, conditions: 1 µM

Cell Line | increase in dead-cell fraction
HTERT_HME1 | 0.0329
MCF7 | 0.0543
MCF10A | -0.0035
MCF12A | 0.0148
MDAMB175VII | 0.0044

same assay, conditions: 3.162 µM

Cell Line | increase in dead-cell fraction
HTERT_HME1 | 0.0399
MCF7 | 0.277
MCF10A | -0.0012
MCF12A | 0.0231
MDAMB175VII | 0.0131

same assay, conditions: 10 µM

Cell Line | increase in dead-cell fraction
HTERT_HME1 | 0.111
MCF7 | 0.373
MCF10A | 0.0346
MCF12A | 0.0492
MDAMB175VII | 0.0317

compound: T1, Neratinib/HKI272; test: as above; conditions: 0.0003162 µM

Cell Line | increase in dead-cell fraction
HTERT_HME1 | -0.0015
MCF7 | 0
MCF10A | -0.0011
MCF12A | -0.002
MDAMB175VII | -0.0063

same assay, conditions: 0.001 µM

Cell Line | increase in dead-cell fraction
HTERT_HME1 | 0.0018
MCF7 | 0.0036
MCF10A | -0.0018
MCF12A | 0.0045
MDAMB175VII | -0.0069

same assay, conditions: 0.003162 µM

Cell Line | increase in dead-cell fraction
HTERT_HME1 | 0.0002
MCF7 | 0.0018
MCF10A | -0.0008
MCF12A | 0.0065
MDAMB175VII | 0.0132

same assay, conditions: 0.01 µM

Cell Line | increase in dead-cell fraction
HTERT_HME1 | -0.0031
MCF7 | 0.0034
MCF10A | -0.0018
MCF12A | -0.0012
MDAMB175VII | 0.0578

same assay, conditions: 0.03162 µM

Cell Line | increase in dead-cell fraction
HTERT_HME1 | -0.0026
MCF7 | 0.0035
MCF10A | -0.0064
MCF12A | -0.0009
MDAMB175VII | 0.214

same assay, conditions: 0.1 µM

Cell Line | increase in dead-cell fraction
HTERT_HME1 | 0.0016
MCF7 | 0.0017
MCF10A | -0.004
MCF12A | 0.0012
MDAMB175VII | 0.276

same assay, conditions: 0.3162 µM

Cell Line | increase in dead-cell fraction
HTERT_HME1 | 0.0161
MCF7 | 0.0089
MCF10A | 0.003
MCF12A | 0.029
MDAMB175VII | 0.406

same assay, conditions: 1 µM

Cell Line | increase in dead-cell fraction
HTERT_HME1 | 0.0278
MCF7 | 0.0125
MCF10A | 0.0444
MCF12A | 0.0776
MDAMB175VII | 0.44

same assay, conditions: 3.162 µM

Cell Line | increase in dead-cell fraction
HTERT_HME1 | 0.106
MCF7 | 0.164
MCF10A | 0.164
MCF12A | 0.146
